# Assay results from patent US10342804B2, “Steroid compound for use in the treatment of hepatic encephalopathy” (Umecrine Cognition AB, priority 2014, dated 2019).
# Assays:
# hyperammonemic rats = test: Beam walking test, hyperammonemic rats (Example 8); type: in vivo, rat
# Experimental: Male Wistar rats (140-160 g) were made hyperammonemic by feeding them a diet containing ammonium acetate (30% by weight) (Felipo et al, European Journal of Biochemistry, 1988, 176, 567-571).
# 3α-ethynyl-3β-hydroxyandrostan-17-one oxime in sesame oil was administered by subcutaneous injections in the back of the rats, once daily. Two different sets of experiments were performed in hyperammonemic rats. In the first set four groups of rats were used: 1) control rats injected with vehicle; 2) hyperammonemic rats injected with vehicle; 3) control rats injected with 20 mg/Kg of 3α-ethynyl-3β-hydroxyandrostan-17-one oxime and 4) hyperammonemic rats injected with 20 mg/Kg of 3α-ethynyl-3β-hydroxyandrostan-17-one oxime. […]
# Motor coordination was tested as described by Gonzalez-Usano et al (ACS Chemical Neuroscience, 2014, 19, 5(2), 100-105) using a wooden beam (20 mm diameter). Rats were made to traverse a one-meter-long wooden beam located approximately one meter above the ground, and the number of foot faults (slips) was recorded by two observers. The rats were trained for the test by being made to traverse the beam up to five times before measurements were recorded. […]
# [1] = target: T1, human α5β3γ2L GABAA receptors (Homo sapiens, UniProt P28472+P31644); test: Whole-cell voltage-clamp electrophysiology, HEK-293 cells expressing α5β3γ2L GABAA receptors; type: cell-based; details: for GAMSA effect: α5β3γ2L, 1 μM GAMSA, 0.3 μM GABA, AUC
# T1 construct: expressed in transfected cells; host or cells: HEK-293, permanently transfected
# Experimental: For electrophysiology measurements the Dynaflow® system with the Resolve chip was used (Cellectricon, Göteborg, Sweden). HEK-293 cells were permanently transfected with vectors including the human CMV promoter for constitutive expression of the human α5, β3, and γ2L GABAA receptor subunits (α5β3γ2L) or the human α1, β2, and γ2L GABAA receptor subunits (α1β2γ2L). The cell lines used were selected for good reactivity to GABA and to THDOC. Before measurements cells were incubated for 15 min at 37° C. in 95% air+5% CO2 in extracellular solution (EC) containing the following: 137 mM NaCl, 5.0 mM KCl, 1.0 mM CaCl2, 1.2 mM MgCl2, 10 mM HEPES, and 10 mM glucose, 0.1% DMSO pH 7.4. Thereafter, detached cells were added to the EC solution in the Dynaflow chip bath.
# Whole-cell voltage-clamp recordings were made at room temperature (21-23° C., −17 mV with compensation for liquid junction potential as in Haage et al., 2002; Neher, 1992). Command pulses were generate and data collected by PClamp 9.0 software, DigiData 1322A converter, and AxonPatch 200B (Axon Instruments, Foster City, Calif.). Patch electrodes (2-6 MΩ) were filled with intracellular solution (IC) including: 140 mM Cs-gluconate, 3.0 mM NaCl, 1.2 mM MgCl2, 10 mM HEPES, 1.0 mM EGTA, 2 mM Mg-ATP, 0.1% DMSO, pH 7.2.
# THDOC and 3α-ethynyl-3β-hydroxyandrostan-17-one oxime were dissolved in dimethyl sulfoxide (DMSO) and thereafter diluted with EC solution to include 0.1% DMSO.
# Different protocols were used for different electrophysiology measurements. As α1β2γ2L-GABAA receptors in vivo are present within the synapse a condition resembling that situation, a short application (40 ms) of a high GABA concentration (30 μM), was used. Contrary, α5β3γ2L-GABAA receptors are present extrasynaptically, thus the conditions used were long exposures (6 s) to a low GABA concentration (0.3 μM). The EC75 concentration of THDOC was used, i.e. 100 nM with studies of α1β2γ2L and 200 nM when α5β3γ2L expressing cells were evaluated. With both cell types a pre-exposure with THDOC or THDOC plus 3α-ethynyl-3β-hydroxyandrostan-17-one oxime was used before application of GABA.
# Steroid effects in presence of GABA were normalized to controls in order to avoid the effects of inter- and intracellular variation in the measured parameters, each cell was used as its own control and the area under the curve (AUC) was analyzed.
# T1 sequence (P31644 32-462): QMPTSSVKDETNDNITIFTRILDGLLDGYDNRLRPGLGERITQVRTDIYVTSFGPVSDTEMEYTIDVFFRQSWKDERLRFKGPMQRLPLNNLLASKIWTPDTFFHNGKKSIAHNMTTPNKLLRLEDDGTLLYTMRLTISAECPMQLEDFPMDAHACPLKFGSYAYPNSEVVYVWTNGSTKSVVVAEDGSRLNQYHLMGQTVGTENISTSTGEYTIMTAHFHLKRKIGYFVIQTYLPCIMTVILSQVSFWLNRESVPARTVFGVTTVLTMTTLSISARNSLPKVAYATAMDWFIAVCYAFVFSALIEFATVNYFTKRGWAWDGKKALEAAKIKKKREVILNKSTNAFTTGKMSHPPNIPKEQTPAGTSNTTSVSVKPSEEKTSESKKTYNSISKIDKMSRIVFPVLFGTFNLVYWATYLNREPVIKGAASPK
# T1 sequence (P28472 26-473): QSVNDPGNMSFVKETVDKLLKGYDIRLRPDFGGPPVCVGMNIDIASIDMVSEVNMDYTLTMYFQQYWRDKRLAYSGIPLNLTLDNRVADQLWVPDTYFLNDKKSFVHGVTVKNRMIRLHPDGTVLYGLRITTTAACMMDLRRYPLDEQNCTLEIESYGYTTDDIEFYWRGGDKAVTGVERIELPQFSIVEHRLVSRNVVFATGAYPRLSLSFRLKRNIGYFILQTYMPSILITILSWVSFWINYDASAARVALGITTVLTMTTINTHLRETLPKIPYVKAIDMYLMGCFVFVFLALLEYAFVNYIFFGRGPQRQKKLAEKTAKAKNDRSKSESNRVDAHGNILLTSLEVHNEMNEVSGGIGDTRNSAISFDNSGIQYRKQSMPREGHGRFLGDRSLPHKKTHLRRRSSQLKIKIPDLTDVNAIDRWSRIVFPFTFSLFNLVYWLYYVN
# T1 sequence (P18507 40-475 partner): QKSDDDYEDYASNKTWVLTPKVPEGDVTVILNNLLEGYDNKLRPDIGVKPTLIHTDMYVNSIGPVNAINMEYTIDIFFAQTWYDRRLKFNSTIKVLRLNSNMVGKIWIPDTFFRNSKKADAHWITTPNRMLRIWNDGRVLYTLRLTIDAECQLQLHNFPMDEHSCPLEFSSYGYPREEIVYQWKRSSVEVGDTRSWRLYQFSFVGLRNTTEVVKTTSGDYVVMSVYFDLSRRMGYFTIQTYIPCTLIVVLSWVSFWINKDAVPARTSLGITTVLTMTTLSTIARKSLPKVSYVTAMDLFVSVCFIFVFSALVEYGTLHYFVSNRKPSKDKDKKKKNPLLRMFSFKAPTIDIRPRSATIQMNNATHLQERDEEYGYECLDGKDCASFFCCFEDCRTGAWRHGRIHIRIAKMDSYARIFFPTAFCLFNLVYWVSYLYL
compound,measurement,setting,value
C#C[C@]1(O)CC[C@@]2(C)C(CC[C@@H]3[C@@H]2CC[C@]2(C)/C(=N\O)CC[C@@H]32)C1 (stereo partly drawn) [3α-ethynyl-3β-hydroxyandrostan-17-one oxime],"Number of slips, beam walking test",hyperammonemic rats; 3 mg/kg s.c. once daily,0.8±0.1 slips
same,"Number of slips, beam walking test",hyperammonemic rats; 20 mg/kg s.c. once daily,0.78±0.07 slips
same,inhibition at 1 µM,"[1]; HEK293, read-out: Inhibition of the THDOC enhancement of GABA",49 ± 4.7%
same,GAMSA effect,[1]; 200 nM THDOC,−49 ± 4.7%
same,GAMSA effect,[1]; no THDOC (GABA sole activator),−3.8±1.5%
same,GAMSA effect,"[1]; no THDOC (GABA sole activator), listed as GAMSA",−3.8 ± 1.5%
